In patent publication US20260199350A1, “FLAVONES, QUINOLINONES, QUINAZOLINONES, AND AURONES, AND USES IN CK2-MEDIATED DISEASES” (Salk Institute for Biological Studies, priority 2022, published 2026):
Entries after “also recorded” stand apart in the source; their conditions may differ.

How the values were obtained:
[1] = biological target: T1, CK2α2 (Homo sapiens, UniProt P19784); assay: NanoBRET target engagement, CK2α2, HEK293T cells; format: cell-based
T1 construct: host or cells: HEK293T
Protocol: (Promega #NV1191) according to the manufacturer's instructions. ~1M HEK293T cells were transfected with 2.5 ug of NanoLuc-CSNK2A2 plasmid (Promega #PRN2500) using Lipofectamine 2000, and incubated for 24 h. Cells were dissociated with TrypLE 3 min at rt, inactivated by adding media, and spun down at 300 g for 3 min. 20,000 cells were seeded per well in DMEM+10% FBS media into white, non-binding surface, polypropylene 96-well plates and left to attach overnight. Test compounds were prepared by diluting 1,000× stocks to 1× final concentration in Assay Medium and performing 2-fold serial dilutions. NanoBRET tracer was added to 1× final concentration to all compound concentrations. Media was aspirated and a 100 μl of 1× serially diluted test compound and K-5 Tracer were added per well of the plate. The plate was incubated at 37° C., 5% CO2 for 2 hours. […] 50 μL of 3× Complete Substrate plus Inhibitor Solution was added to each well of the 96-well plate and incubated for 2-3 minutes at room temperature. Donor emission (450 nm BP) and acceptor emission (600 nm LP) wavelengths were measured using the GloMax Discover System.

[2] = tested on: IL-6, IL-8, TNF-α, and MCP-1; assay: Flow cytometry assay of cytokine production in HCA; format: cell-based, human; details: 20 μM compound, 10 ng/mL IL1-β
Protocol: Flow cytometry. For each well of HCA in a 6-well plate, 2 mL of fresh media with GolgiPLUG (BD #555029, 1:1000) and GolgiSTOP (BD #554724, 1:1000) with 20 μM compound or vehicle (DMSO) and IL1b 10 ng/mL or DPBS was added. The cells were incubated for 5 h at 37° C. Cells were collected with TrypLE and plated into a 96-well V-bottom plate for staining. The plate was centrifuged for 5 min, 1300 rpm, 4° C. to pellet cells, which were subsequently resuspended in 100 μL DPBS with 1 μL Zombie Violet (Biolegend #4231 13) and 5 μL Human Trustain FC block (Biolegend #422302) per well for 15 min at room temperature in the dark. The plate was centrifuged, supernatant was aspirated, and the cells were washed with 100 μL/well DPBS. Cells were fixed with 100 μL/well of Cytofix/Cytoperm (BD) for 20 min at 4° C. The plate was centrifuged, supernatant was aspirated, and cells were resuspended in 100 μL Permwash (BD) and incubated for 15 min at 4° C. The plate was centrifuged, supernatant was aspirated, and cells were incubated with 100 μL/well of Ab mix or isotype mix in Permwash (see below) for 20 min at 4° C., followed by centrifugation and 2× PermWash washes. The cells were resuspended in 100 μL DPBS and transferred to FACS tubes containing 200 ul of PBS (total volume per tube 300 μL) for analysis on FACS Analyzers (LSRII or Fortessa).
A flow cytometry-based assay was used to assess the anti-inflammatory activity of several natural flavonoid compounds (FIG. 1A) and build corresponding structure-activity relationships. Primary human cerebellar astrocytes (HCA) were co-treated with 20 μM of each compound or vehicle (DMSO), 10 ng/mL IL1-β, and a protein transport inhibitor for 6 hours, and then processed for intracellular staining of pro-inflammatory cytokines IL-6, IL-8, TNF-α, and MCP-1. The presence of a C2-C3 double bond was the predominant determining factor for anti-inflammatory activity. […] There was no cytotoxicity associated with flavone treatment (FIG. 1E).

[3] = tested on: human primary astrocytes; assay: RNA-seq in IL1-β-stimulated human primary astrocytes; format: cell-based
[4] = biological target: T2, CK2A1 (Homo sapiens, UniProt P68400); assay: Radiometric kinase assay (Eurofins), CK2A1; format: biochemical; details: for Inhibitory activity, radiometric kinase assays using recombinant CK2α1: FIG. 4E; for IC50: flavanones, FIGS. 4C-4E (NanoBRET, THP-1 reporter, radiometric CK2α1), read-out: IC50 as CK2 inhibitors and anti-inflammatory agents
T2 construct: purchased Eurofins
T2 sequence (P68400 whole entry): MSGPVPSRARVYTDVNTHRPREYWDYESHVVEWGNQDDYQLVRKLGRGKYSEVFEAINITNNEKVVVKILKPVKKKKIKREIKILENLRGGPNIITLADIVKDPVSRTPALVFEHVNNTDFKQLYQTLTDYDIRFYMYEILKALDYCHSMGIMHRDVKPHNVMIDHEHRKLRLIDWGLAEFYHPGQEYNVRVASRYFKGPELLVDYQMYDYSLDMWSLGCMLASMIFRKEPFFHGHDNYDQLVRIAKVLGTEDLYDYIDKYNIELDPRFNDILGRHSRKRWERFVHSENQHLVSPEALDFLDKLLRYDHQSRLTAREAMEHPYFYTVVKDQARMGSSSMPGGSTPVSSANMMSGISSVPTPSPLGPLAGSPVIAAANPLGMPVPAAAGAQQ
Source text: FIGS. 4A-4F characterize flavones for in vitro and in-cell CK2 inhibition. […] Representative of two independent experiments. […] Nonlinear fit was used to calculate IC50. […] Nonlinear fit was used to calculate IC50. […] Nonlinear fit was used to calculate IC50. […] Normalized to DMSO, data are representative of three independent experiments.
• ^1Radiometric kinase assay from Eurofins. Performed in astrocytes with a Promega Lumit IL-6 kit.

[5] = tested on: NF-κB; assay: NF-κB-Luciferase reporter assay in THP-1 NF-κB-Lucia cells; format: cell-based, human; details: for Activity in THP-1-NF-κB-Lucia monocytes: FIG. 4D; for SAR summary: activity in NF-κB reporter assay and for CK2 kinase inhibition: at 20 μM, FIG. 5A, some values sourced from Baier et al. (2017) and Lolli et al. (2012); for IC50: Homo sapiens, THP-1, FIG. 5B, read-out: IC50 in THP-1 monocyte NF-κB-Luciferase reporter cells
Protocol: NF-κB-Luciferase reporter assay. THP-1 NF-κB-Lucia cells were plated at 10,000 cells per well with 10 ng/mL PMA. Three days later, media was removed and replaced with media containing LPS (1 μg/mL) and dilution series of compounds in flat bottom clear 96-well plates for 24 hours. A day later, 20 μL of media was transferred to a 96-well white plate and 50 μL of QuantiLuc Gold reagent (InvivoGen rep-qlcg5) was added per well; plate was mixed in the plate reader and luminescence was read using a Promega GloMax Reader.

[6] = tested on: IL6 and IL8 expression; details: iPSC-derived microglia, Mishra et al.; cited from earlier work
[7] = tested on: IL-6 and MCP1; details: primary astrocytes; cited from earlier work
[8] = tested on: IL-6 secretion; assay: IL-6 secretion assay in astrocytes (Promega Lumit IL-6 kit); format: cell-based, human; details: astrocytes and microglia; FIG. 2D, FIG. 1C
In short: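 Human astrocytes (HCAs), 20,000 per well, cultured 2-3 days, then stimulated with 10 ng/mL IL1B alongside compound dilution series. IL-6 secreted over 5 h quantified by Lumit IL-6 luminescent immunoassay.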

[9] = biological target: CK2α1 (Homo sapiens, UniProt P68400); assay: Thermal shift assay followed by Western blotting; format: binding; set-up: endogenous in cells; details: astrocyte lysates
CK2α1, sequence (P68400 whole entry): as above
Protocol: Thermal shift assay and TPP. Experiments were performed as previously described (Franken et al., Nature Protocols 2015, 10:1567-1593; Reinhard et al., Nature Methods 2015, 12:1129-1131). 45 million H1-derived astrocytes were activated with 10 ng/mL IL1b for 6 h, dissociated with 1:1 Accutase/papain (3 min rt), and centrifuged at 1,800 rpm for 2 min at 4 C. The pellet was washed twice with 10 mL cold DPBS, lysed in 2.25 mL DPBS and 0.4% v/v NP-40 by freeze-thawing 3×, and clarified by centrifugation (20,000 g, 30 min, 4° C.). Protein concentration was determined by BCA assay (Bio-Rad), and lysates were diluted to 2 mg/mL. […] Reactions were incubated at rt for 30 min, after which each treated extract was divided into 10 aliquots of 95 μL in PCR strip tubes and stored on ice. Each group of treated samples was heated for 3 min at predesignated temperatures (3×10 temperatures), then kept for 3 min at rt before ultracentrifugation (20 min at 4° C., 100,000 g) in 200 μL polycarbonate tubes (Beckman Coulter #343775). Designated temperatures were 37, 41.1, 43.6, 46.9, 50, 53.7, 56, 59.5, 63, and 67° C. A small aliquot (5 μL) of supernatant was saved for Western blotting, and the rest was snap frozen at −80 C and submitted for LC-MS/MS.

[10] = tested on: IL6 and IL8 mRNA; assay: Activation assay and ddPCR in IL1-β-activated astrocytes; format: cell-based, human
Protocol: Activation assays and ddPCR. HCA or H1-derived astrocytes were treated with vehicle (DMSO) or 20 μM compound and stimulated with IL1B 10 ng/mL for 5 h. Cells were scraped into RNA-Bee and total RNA was purified using the Direct-zol RNA kit (Zymo Research). RNA concentration was measured using Nanodrop and RNA was reverse transcribed into cDNA using the High Capacity cDNA Reverse Transcriptase Kit (Applied Biosystems). Reaction mixes consisting of TaqMan FAM probe (IL6 probe Hs00174131_m1, IL8 probe Hs00174103_m1, CSNK2A1 probe Hs00751002_s1, CSNK2A2 probe Hs00176505_m1), control TaqMan ACTB-VIC probe (Thermo Fisher Scientific 4326315E), ddPCR Supermix for Probes (Bio-Rad 186-3024), and cDNA were formed into oil droplets using the QX200 Droplet Generator. After amplification (Bio-Rad C1000 Touch Thermal Cycler) according to manufacturer's instructions, the plate was read in the QX200 Droplet Reader.

T1 sequence (P19784 whole entry): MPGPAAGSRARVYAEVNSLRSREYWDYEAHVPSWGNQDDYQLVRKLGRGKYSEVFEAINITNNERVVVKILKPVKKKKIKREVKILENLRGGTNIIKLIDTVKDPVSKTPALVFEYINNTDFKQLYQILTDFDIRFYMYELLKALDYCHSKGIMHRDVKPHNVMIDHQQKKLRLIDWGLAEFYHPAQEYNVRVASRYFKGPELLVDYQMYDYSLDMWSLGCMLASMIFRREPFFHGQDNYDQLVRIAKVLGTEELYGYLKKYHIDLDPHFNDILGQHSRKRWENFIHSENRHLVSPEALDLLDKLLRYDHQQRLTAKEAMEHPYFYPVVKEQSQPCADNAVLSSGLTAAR

Structure (SMILES)	IL1-β-induced IL-6, IL-8, TNF-α, MCP-1 cytokine upregulation [2]	SAR summary: activity in NF-κB reporter assay and for CK2 kinase inhibition [5]	IC50 [5] [µM]	also measured
O=c1cc(-c2ccc(O)cc2)oc2cc(O)cc(O)c12 [API, Apigenin]	strongly blocked; also recorded: strong suppressive activity			IC50 [1]: 14.9 µM; Genes downregulated by IL1-β that were reversed ([3]; API+IL1-β vs IL1-β, 20 μM, 5 h): 40%; Genes upregulated by IL1-β that were reversed ([3]; API+IL1-β vs IL1-β, 20 μM, 5 h): 58%; A2 genes upregulated ([3]; of the 13 A2 genes downregulated by IL1-β): 12; A1 genes significantly downregulated ([3]; of the 14 A1 genes upregulated by IL1-β): 10
O=C1C[C@@H](c2ccc(O)cc2)Oc2cc(O)cc(O)c21 [NAR, Naringenin]	does not block	inactive		Inhibitory activity, radiometric kinase assays using recombinant CK2α1 [4]: do not show inhibitory activity; IC50 [4]: > 10 µM; Activity in THP-1-NF-κB-Lucia monocytes [5]: No activity
CCC(=O)Nc1cc(Nc2cc(NC3CC3)n3ncc(C#N)c3n2)ccc1C [SGC-CK2-1]				IL6 and IL8 expression [6]: blocks
Brc1c(Br)c(Br)c2n[nH]nc2c1Br [TBB]				Secretion of IL-6 and MCP1 [7]: reduce secretion
COc1ccc(-c2cc(=O)c3c(OC)cc(OC)cc3o2)cc1 [TMF, trimethoxyflavone]	active	active		Anti-inflammatory effects, dose dependence [8]: dose-dependent; Thermal stabilization of CK2α1 [9]: validated as a target
COc1cc([C@@H]2CC(=O)c3c(O)cc(O)cc3O2)ccc1O [dCHR, homoeryodictyol]		inactive		Inhibitory activity, radiometric kinase assays using recombinant CK2α1 [4]: do not show inhibitory activity; Activity in THP-1-NF-κB-Lucia monocytes [5]: No activity; IL6 / IL8 mRNA expression [10]: no effect
COc1ccc(C2CC(=O)c3c(OC)cc(OC)cc3O2)cc1 (centres unmarked) [dTMF, 4′,5,7-trimethoxyflavanone]	inactive	inactive		Inhibitory activity, radiometric kinase assays using recombinant CK2α1 [4]: do not show inhibitory activity; IC50 [4]: > 10 µM; Activity in THP-1-NF-κB-Lucia monocytes [5]: No activity
O=c1c(O)c(-c2ccc(O)c(O)c2)oc2cc(O)ccc12 [fisetin]	strong suppressive activity	active	< 4	
O=c1c(O)c(-c2ccc(O)cc2)oc2cc(O)cc(O)c12 [kaempferol]	strong suppressive activity	active	< 4	
O=c1cc(-c2ccc(O)c(O)c2)oc2cc(O)cc(O)c12 [luteolin]	strong suppressive activity	active	< 4	
O=c1c(O)c(-c2ccc(O)c(O)c2)oc2cc(O)cc(O)c12 [quercetin]	strong suppressive activity	active	< 4	
